This note sets out measurements from ChEMBL document CHEMBL6103565, “Current strategies in design and synthesis of antifungals hybrid and chimeric diazine derivatives” (Bioorg Med Chem, 2025).

Each structure is given as a SMILES string. Values after ≈ are worked out from the molar mass of the structure shown.

Holding throughout (format): functional
Test [1] deals with Candida albicans. In words: Antifungal activity against Candida albicans ATCC 90028 assessed as growth inhibition incubated for 36 hrs by resazurin dye based assay. In general terms: The colour change of resazurin is a common sign of viable cells or microbes.
A further test deals with Geotrichum candidum. The experiment in a line: Antifungal activity against Geotrichum candidum.
The subject of test [2] is Candida albicans. The experiment in a line: Antifungal activity against Candida albicans.
Test [3] deals with Syncephalastrum racemosum. The experiment in a line: Antifungal activity against Syncephalastrum racemosum.
Test [4] deals with Candida albicans. In words: Antifungal activity against Candida albicans ATCC 10231 assessed as inhibition of mycelial growth relative to control.
Test [5] relates to Aspergillus niger. In words: Antifungal activity against Aspergillus niger ATCC 16404 assessed as inhibition of mycelial growth relative to control.
The test system of test [6] is Cryptococcus neoformans. The experiment in a line: Antifungal activity against Cryptococcus neoformans.
The subject of test [7] is Candida albicans. The experiment in a line: Antifungal activity against azole-resistant Candida albicans ATCC 18804 assessed as reduction in fungal growth by XTT assay. A general note: Tetrazolium dyes change colour on reduction, which living cells bring about.
The subject of test [8] is Candida albicans. In words: Antifungal activity against azole-resistant Candida albicans ATCC 10231 assessed as reduction in fungal growth by XTT assay.
For test [9], the system named is Aspergillus fumigatus. The experiment in a line: Antifungal activity against Aspergillus fumigatus.
Test [10] concerns Candida albicans. The experiment in a line: Antifungal activity against Candida albicans NRRL-Y477 assessed as zone of inhibition by disc diffusion method. (In agar diffusion tests the substance spreads into inoculated agar from a disc or well.)
In another test the test system is Aspergillus terreus. In words: Antifungal activity against Aspergillus terreus assessed as zone of inhibition by disc diffusion method.
Test [11] deals with Candida albicans. In words: Antifungal activity against azole-resistant Candida albicans ATCC 10231 assessed as fungal growth inhibition incubated for 24 hrs by CLSI protocol based broth microdilution method.
Test [12] relates to Candida albicans. The experiment in a line: Antifungal activity against azole-resistant Candida albicans ATCC 18804 assessed as fungal growth inhibition incubated for 24 hrs by CLSI protocol based broth microdilution method.
The subject of test [13] is Candida albicans. In words: Antifungal activity against Candida albicans assessed as reduction in fungal growth incubated for 18 hrs by broth microdilution method.
For test [14], the system named is Aspergillus fumigatus. The experiment in a line: Antifungal activity against Aspergillus fumigatus assessed as reduction in fungal growth incubated for 20 to 24 hrs by CLSI based micro-dilution analysis. The following applies: time 20-24 hrs.
For the next test, the system named is Nakaseomyces glabratus. The experiment in a line: Antifungal activity against Candida glabrata ATCC 90030.
The test system of test [15] is Aspergillus fumigatus. The experiment in a line: Antifungal activity against Aspergillus fumigatus RCMB 002568 assessed as diameter of zone inhibition.
In test [16] the test system is Candida albicans. In words: Antifungal activity against Candida albicans ATCC 10231.
The test system of test [17] is Candida albicans. The experiment in a line: Antifungal activity against Candida albicans RCMB 005036 assessed as diameter of zone inhibition.
For another test, the system named is Pichia kudriavzevii. The experiment in a line: Antifungal activity against Candida krusei ATCC 6258.
For another test, the system named is Candida parapsilosis. The experiment in a line: Antifungal activity against Candida parapsilosis ATCC 22019. The following applies: Lodderomyces parapsilosis.
The subject of test [18] is Aspergillus fumigatus. In words: Antifungal activity against Aspergillus fumigatus assessed as reduction in fungal growth incubated for 72 hrs by agar well diffusion method.
The subject of test [19] is Candida albicans. In words: Antimicrobial activity against Candida albicans ATCC 64124 assessed as reduction in microbial growth by CLSI protocol based micro-broth dilution method.
The test system of test [20] is Aspergillus fumigatus. In words: Antifungal activity against Aspergillus fumigatus assessed as zone of inhibition.
The subject of test [21] is Aspergillus flavus. In words: Antimicrobial activity against Aspergillus flavus assessed as zone of inhibition.
Test [22] deals with Aspergillus niger. The experiment in a line: Antifungal activity against Aspergillus niger assessed as zone of inhibition by disc diffusion method.
Test [23] concerns Cryptococcus neoformans. The experiment in a line: Antifungal activity against Cryptococcus neoformans assessed as reduction in fungal growth incubated for 24 hrs by broth microdilution method.
Test [24] concerns Candida albicans. In words: Antifungal activity against Candida albicans assessed as reduction in fungal growth incubated for 72 hrs by agar well diffusion method.
The subject of test [25] is Syncephalastrum racemosum. In words: Antifungal activity against Syncephalastrum racemosum assessed as zone of inhibition.
A further test has as its system Trichophyton rubrum. The experiment in a line: Antifungal activity against Trichophyton rubrum assessed as diameter of zone inhibition.
For the next test, the system named is Microsporum audouinii. In words: Antifungal activity against Microsporum audouinii.
Test [26] relates to Candida albicans. In words: Antifungal activity against Candida albicans assessed as zone of inhibition by disc diffusion method.
Test [27] concerns Candida albicans. In words: Antifungal activity against Candida albicans assessed as diameter of inhibition zone.
The subject of test [28] is Aspergillus fumigatus. In words: Antifungal activity against Aspergillus fumigatus assessed as reduction in fungal growth.
The test system of test [29] is Candida albicans. In words: Antifungal activity against Candida albicans assessed as zone of inhibition by serial dilution and disc diffusion method.
Test [30] has as its system Candida albicans. The experiment in a line: Antifungal activity against Candida albicans SC5314 assessed as reduction in fungal growth incubated for 72 hrs by broth microdilution method.
The subject of test [31] is Candida albicans. The experiment in a line: Antifungal activity against Candida albicans assessed as zone of inhibition.
Test [32] relates to Aspergillus flavus. The experiment in a line: Antifungal activity against Aspergillus flavus assessed as zone of inhibition by disc diffusion method.
Test [33] has as its system Saccharomyces cerevisiae. In words: Antimicrobial activity against Saccharomyces cerevisiae assessed as zone of inhibition.
The next test deals with Rhizopus microsporus. In words: Antifungal activity against Rhizopus microsporus assessed as diameter of inhibition zone.
Test [34] relates to Saccharomyces cerevisiae. In words: Antimicrobial activity against Saccharomyces cerevisiae assessed as zone of inhibition by disc diffusion method.
Test [35] deals with Aspergillus niger. The experiment in a line: Antifungal activity against Aspergillus niger assessed as zone of inhibition.
In test [36] the test system is Talaromyces purpureogenus. The experiment in a line: Antifungal activity against Talaromyces purpureogenus assessed as zone of inhibition by disc diffusion method.

As for `FC(F)(F)c1nnc2n1CCN(C(=S)Nc1ccc(Br)cc1)C2`, in the test with Candida albicans [1], the MIC (in general, the smallest concentration in the dilution series that meets the test's criterion for growth inhibition) is 6.25 µg/mL (≈ 15.4 µM).
With `Cc1nc2c(sc3nc4c(nc32)c(C)nn4-c2ccccc2)c(=O)o1`, the figures for the MIC (with Geotrichum candidum; in the test with Candida albicans [2]; in test [3]) were 4 µg/mL (≈ 11.4 µM), 3 µg/mL (≈ 8.59 µM) and 3 µg/mL (≈ 8.59 µM), respectively.
Consider `CCCCCCCC(=O)O[C@@H]1[C@H](OC(=O)CCCCCCC)[C@@H](COC(c2ccccc2)(c2ccccc2)c2ccccc2)O[C@H]1n1ccc(=O)[nH]c1=O`, for which the “inhibition (INH)” value with Candida albicans [4] came out at 70%; with Aspergillus niger [5], 99%.
Turning to `O=c1cc[nH]c(=O)n1N=C1CC(c2ccc(O)cc2)SC(c2ccc(O)cc2)C1` (stereo not given), the MIC came to 4 µg/mL (≈ 9.77 µM) in the test on Cryptococcus neoformans [6] and 0.25 µg/mL (≈ 0.611 µM) with Candida albicans [2].
With `O=C1N=C(n2[nH]c(=O)ccc2=O)S/C1=N\Nc1ccc(Cl)cc1Cl`, the minimum inhibitory concentration (MIC) amounted to 0.6 µg/mL (≈ 1.56 µM) in the test on Candida albicans [7] and 2.1 µg/mL (≈ 5.47 µM) in the test with Candida albicans [8].
Take `Cc1cc(Nc2ccc(=O)n(-c3ccccc3)n2)no1`: the MIC against Candida albicans [2] and in the test with Aspergillus fumigatus [9] was 18 µg/mL (≈ 67.1 µM) throughout.
Consider `CCOC(=O)c1c(C)nc2sc3c(ncn4nc(C)nc34)c2c1-c1cccs1`, for which the “inhibition zone (IZ)” value with Candida albicans [10] and in the test with Aspergillus terreus was 25 mm in each case.
Take `O=C1N=C(n2[nH]c(=O)ccc2=O)S/C1=N\Nc1ccc(-c2ccc(N/N=C3/SC(n4[nH]c(=O)ccc4=O)=NC3=O)cc2)cc1`: the minimal inhibitory concentration (MIC) in the test with Candida albicans [8] was determined as 3.1 µg/mL (≈ 4.93 µM).
As to `O=c1ccc(=O)n(-c2nc(-c3cccs3)cs2)[nH]1`, the values for the MIC with Candida albicans [11] and with Candida albicans [12] were 3.9 µg/mL (≈ 14.1 µM) and 1.9 µg/mL (≈ 6.85 µM), respectively.
`Cc1cc(=O)n2nc(C(=O)NN)nc2[nH]1`: in the test with Candida albicans [13], the MIC is 4 µg/mL (≈ 19.2 µM).
As to `OC[C@H]1O[C@@H](Sc2nnc(Cc3ccc4ccc5cccc6ccc3c4c56)c3ccccc23)[C@H](O)[C@H]1O`, the MIC with Aspergillus fumigatus [14] came to 17 µg/mL (≈ 33.4 µM).
For the compound `O=C(Nc1ccc(F)cc1)N1CCn2c(nnc2C(F)(F)F)C1`, in the test on Candida albicans [1], the MIC stood at 6.25 µg/mL (≈ 19 µM).
For the compound `CC(=O)N1CCN(c2ccc(OC[C@H]3CO[C@](Cn4ccnc4)(c4ccc(Cl)cc4Cl)O3)cc2)CC1`, the MIC was determined as 0.78 µg/mL (≈ 1.47 µM) against Nakaseomyces glabratus, 18 µg/mL (≈ 33.9 µM) with Aspergillus fumigatus [14], 0.78 µg/mL (≈ 1.47 µM) against Pichia kudriavzevii and 0.78 µg/mL (≈ 1.47 µM) in the test on Candida parapsilosis. Moreover, the “inhibition zone (IZ)” value with Aspergillus fumigatus [15] is given as 23 mm; with Candida albicans [17], 25 mm. For the same compound, in the test on Candida albicans [16], the MIC50 – broadly, the lowest concentration that inhibits either 50% of growth or 50% of the strains tested, depending on the study – was 0.78 µg/mL (≈ 1.47 µM).
`C[C@@H]1[C@H](O)[C@@H](C)/C=C/C=C/C=C/C=C/C=C/C=C/C=C/[C@H](O[C@@H]2O[C@H](C)[C@@H](O)[C@H](N)[C@@H]2O)C[C@@H]2O[C@](O)(C[C@@H](O)C[C@@H](O)[C@H](O)CC[C@@H](O)C[C@@H](O)CC(=O)O[C@H]1C)C[C@H](O)[C@H]2C(=O)O` [AMPHOTERICIN B]: the MIC in the test on Candida albicans [7] stood at 0.2 µg/mL (≈ 0.216 µM); with Aspergillus fumigatus [18], 1.95 µg/mL (≈ 2.11 µM); in the test on Candida albicans [19], 1 µg/mL; with Candida albicans [8], 1.9 µg/mL (≈ 2.06 µM); with Cryptococcus neoformans [23], 0.39 µg/mL (≈ 0.422 µM); in the test with Candida albicans [24], 3.9 µg/mL (≈ 4.22 µM). The MIC in the test on Candida albicans [11] came out at 1.9 µg/mL (≈ 2.06 µM); in the test with Candida albicans [12], 0.2 µg/mL (≈ 0.216 µM). Also, the “inhibition zone (IZ)” value is 24 mm in the test with Aspergillus fumigatus [20], 15 mm in the test with Aspergillus flavus [21], 17 mm in the test on Aspergillus niger [22] and 20 mm in test [25].
On to `Clc1ccccc1C(c1ccccc1)(c1ccccc1)n1ccnc1` [CLOTRIMAZOLE], for which the “inhibition zone (IZ)” value in the test on Trichophyton rubrum is listed as 14 mm. In addition, the MIC in the test with Microsporum audouinii worked out at 4 µg/mL (≈ 11.6 µM); against Geotrichum candidum it was 5 µg/mL (≈ 14.5 µM); in the test on Cryptococcus neoformans [6] it was 2 µg/mL (≈ 5.8 µM); against Aspergillus fumigatus [9] it was 68 µg/mL (≈ 197 µM).
With `OC(Cn1cncn1)(Cn1cncn1)c1ccc(F)cc1F` [FLUCONAZOLE], the “inhibition zone (IZ)” value in the test on Candida albicans [26] is 2.1 mm; with Candida albicans [27], 10 mm; in the test on Candida albicans [29] it was 24 mm; in the test on Candida albicans [31] it was 22 mm; in the test with Aspergillus flavus [32] it was 2.9 mm; in the test with Saccharomyces cerevisiae [33] it was 11 mm. For the same compound, the “inhibition zone (IZ)” value in the test with Rhizopus microsporus is recorded as 12 mm; in the test with Saccharomyces cerevisiae [34], 13 mm; with Aspergillus niger [35], 20 mm. For the same compound, the MIC was below 212 µg/mL in the test on Aspergillus fumigatus [28]; above 64 µg/mL with Candida albicans [19]; 0.125 µg/mL (≈ 0.408 µM) in the test on Candida albicans [13]; 0.78 µg/mL (≈ 2.55 µM) with Nakaseomyces glabratus; at most 0.25 µg/mL in the test on Candida albicans [30]; 0.78 µg/mL (≈ 2.55 µM) against Pichia kudriavzevii. The MIC with Cryptococcus neoformans [23] was 8 µg/mL (≈ 26.1 µM); in the test with Candida parapsilosis, 0.78 µg/mL (≈ 2.55 µM). Moreover, in the test with Candida albicans [16], the MIC50 worked out at 0.78 µg/mL (≈ 2.55 µM).
With `C[C@@H](c1ncncc1F)[C@](O)(Cn1cncn1)c1ccc(F)cc1F` [VORICONAZOLE], the results for the “inhibition zone (IZ)” value (in the test on Aspergillus terreus; with Aspergillus niger [22]; in [36]) were 20 mm, 20 mm and 17 mm, respectively.
